Experimental findings from patent US7294627B2, “Chemical compounds” (Eli Lilly and Company, priority 2001, dated 2007) are described below.

Molecules are shown by their SMILES.

In the experiment the target is T1, human factor Xa (Homo sapiens, UniProt P00742).
T1 construct: 25 μL human factor Xa (32 nM in 0.03 M tris, 0.15 M NaCl, 1 mg/mL HSA); purchased Enzyme Research Laboratories (South Bend, Ind., USA)
The experiment can be described thus: Enzyme inhibition assay (apparent Kass, chromogenic substrate hydrolysis). In kind it is biochemical. The note with it: apparent association constant, human factor Xa 3.2 nM, BzIleGluGlyArgpNA substrate; 1/appKass=app Ki. As to the method:
Human factor Xa and human thrombin are purchased from Enzyme Research Laboratories (South Bend, Ind., USA). Other proteases are from other commercial sources. Chromogenic para-nitroanilide peptide protease substrates are purchased from Midwest Biotech (Fishers, Ind., USA).
The binding affinities for human factor Xa are measured as apparent association constants (Kass) derived from protease inhibition kinetics as described previously.^a,b,c,d The apparent Kass values are obtained using automated (BioMek-1000) dilutions of inhibitors (Kass determinations are performed in triplicate at each of four-eight inhibitor concentrations) into 96-well plates and chromogenic substrate hydrolysis rates determined at 405 nm using a Thermomax plate reader from Molecular Devices (San Francisco). […] [Free Xa] and [bound Xa] are determined from linear standard curves on the same plate by use of SoftmaxPro software for each inhibitor concentration and apparent Kass calculated for each inhibitor concentration which produced hydrolysis inhibition between 20% and 80% of the control (3.2 nM factor Xa): apparent Kass=[E:I]/[Ef][If]=[Eb]/[Ef][I^o−I^b]. […] The variability of mean apparent Kass values determined at the single substrate concentration is +/−15%. […]

T1 sequence (P00742 235-488 limits assumed): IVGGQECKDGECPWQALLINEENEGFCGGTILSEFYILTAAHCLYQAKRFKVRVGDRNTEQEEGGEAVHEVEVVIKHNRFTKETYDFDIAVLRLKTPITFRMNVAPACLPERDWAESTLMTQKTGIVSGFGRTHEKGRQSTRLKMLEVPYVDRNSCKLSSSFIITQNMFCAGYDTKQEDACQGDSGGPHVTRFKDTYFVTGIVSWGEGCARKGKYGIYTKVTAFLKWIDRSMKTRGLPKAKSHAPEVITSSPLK
T1 sequence (P00742 41-179 partner limits assumed): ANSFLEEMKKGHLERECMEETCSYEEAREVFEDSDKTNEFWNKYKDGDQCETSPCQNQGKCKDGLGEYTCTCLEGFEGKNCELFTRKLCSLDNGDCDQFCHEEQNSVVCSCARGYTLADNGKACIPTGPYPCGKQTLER

Consider `COc1ccc(C(=O)NC(C(=O)N2CCC(CN(C)c3ccncc3)CC2)c2ccccc2Cl)cc1.Cl` (racemic) [Example 7], for which the Kass is about 1.22e+08 L/mol.
